Data set [1] concerns the target T1, (−)-pluviatolide O-methyltransferase (OMT3) (Sinopodophyllum hexandrum, UniProt A0A0N9HMN6).
T1 construct: 6xHis (N); made in house; host or cells: E. coli BL21 (DE3), pET28a
T1 sequence (A0A0N9HMN6 1-372): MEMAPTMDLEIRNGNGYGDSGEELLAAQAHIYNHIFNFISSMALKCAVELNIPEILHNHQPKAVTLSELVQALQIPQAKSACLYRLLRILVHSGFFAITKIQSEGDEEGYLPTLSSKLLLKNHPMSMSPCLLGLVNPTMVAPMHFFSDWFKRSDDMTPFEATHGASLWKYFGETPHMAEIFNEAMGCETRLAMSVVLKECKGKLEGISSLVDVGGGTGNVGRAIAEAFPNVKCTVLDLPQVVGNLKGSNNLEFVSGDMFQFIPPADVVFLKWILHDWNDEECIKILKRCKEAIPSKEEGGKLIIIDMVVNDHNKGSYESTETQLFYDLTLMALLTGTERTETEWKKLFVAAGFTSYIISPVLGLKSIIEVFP
Kind of data set: In vitro characterization of recombinant OMT3 (steady state kinetics, substrate specificity). The class given is biochemical, P. hexandrum. Particulars: for acceptance as substrate by OMT3: (+)-pinoresinol 400 μM, (−)-matairesinol 40 μM, (−)-arctigenin 40 μM, quenched after 2 h.

For a further data set, the target named is T2, 2-ODD (Sinopodophyllum hexandrum, UniProt A0A0N9HQ36).
T2 construct: 6xHis (C); made in house; host or cells: E. coli BL21 (DE3), pET24b
T2 sequence (A0A0N9HQ36 whole entry): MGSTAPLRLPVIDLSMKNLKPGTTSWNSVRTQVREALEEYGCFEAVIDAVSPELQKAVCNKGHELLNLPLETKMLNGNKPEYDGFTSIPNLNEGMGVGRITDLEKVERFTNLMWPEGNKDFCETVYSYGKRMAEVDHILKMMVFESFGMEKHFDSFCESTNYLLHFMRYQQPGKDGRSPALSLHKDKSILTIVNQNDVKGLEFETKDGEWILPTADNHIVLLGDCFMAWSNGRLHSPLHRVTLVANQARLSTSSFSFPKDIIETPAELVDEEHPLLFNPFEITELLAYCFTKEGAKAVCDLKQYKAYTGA
Kind of data set: 2-ODD enzyme assays. The class given is biochemical, P. hexandrum. Particulars: 5 μg/mL 2-ODD, 2-oxoglutarate, FeSO4, 30 μM substrate, 30° C., 2 h. The method, then:
The above protocol was also followed for the expression and purification of 2-ODD from BL21 (DE3) E. coli harboring pET24b:2-ODD except for the following changes: the 2 L culture at OD600=0.6 was cooled to 16° C. and induced with 100 μM IPTG. The culture was further incubated at 16° C. for 24 h and cooled in ice water before proceeding with purification.
Assays lacking enzyme or 2-oxoglutarate served as negative controls.
(§1) Total reaction volumes were 50 μL.

Another data set has as its target T3, CYP71BE54 (Sinopodophyllum hexandrum, UniProt A0A0N9HT29).
T3 sequence (A0A0N9HT29 1-507): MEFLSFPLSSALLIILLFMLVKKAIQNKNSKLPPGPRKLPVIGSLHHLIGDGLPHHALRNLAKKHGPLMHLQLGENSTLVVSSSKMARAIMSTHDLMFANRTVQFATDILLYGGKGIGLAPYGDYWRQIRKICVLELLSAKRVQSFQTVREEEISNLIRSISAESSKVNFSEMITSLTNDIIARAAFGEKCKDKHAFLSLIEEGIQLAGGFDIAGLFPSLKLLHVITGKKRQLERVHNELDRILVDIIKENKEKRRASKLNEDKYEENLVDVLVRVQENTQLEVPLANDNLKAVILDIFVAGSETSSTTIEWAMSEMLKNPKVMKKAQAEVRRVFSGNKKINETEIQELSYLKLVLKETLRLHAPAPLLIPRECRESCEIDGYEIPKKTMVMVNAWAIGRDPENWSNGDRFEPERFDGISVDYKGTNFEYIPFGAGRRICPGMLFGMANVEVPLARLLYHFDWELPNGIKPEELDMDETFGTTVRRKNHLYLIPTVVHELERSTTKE
Kind of data set: CYP71BE54-microsome assays. Particulars: 4 mg/mL microsomes, 1 mM NADPH, 50 μM substrate, 30° C., 2 h. The method, then: as §1

The subject of a further data set is OMT1. Kind of data set: OMT1 enzyme assays. As to conditions: 10 μg/mL OMT1, 1 mM SAM, 30 or 50 μM substrate, 30° C., 2 h. The class given is biochemical, P. hexandrum. Here is the method:
The above protocol was also followed for the expression and purification of OMT1 from BL21 (DE3) E. coli harboring pET24b:OMT1.
Assay lacking SAM served as negative control.
as §1

Another data set addresses T4, CYP71CU1 (Sinopodophyllum hexandrum, UniProt A0A0N9HTU1).
T4 sequence (A0A0N9HTU1 1-493): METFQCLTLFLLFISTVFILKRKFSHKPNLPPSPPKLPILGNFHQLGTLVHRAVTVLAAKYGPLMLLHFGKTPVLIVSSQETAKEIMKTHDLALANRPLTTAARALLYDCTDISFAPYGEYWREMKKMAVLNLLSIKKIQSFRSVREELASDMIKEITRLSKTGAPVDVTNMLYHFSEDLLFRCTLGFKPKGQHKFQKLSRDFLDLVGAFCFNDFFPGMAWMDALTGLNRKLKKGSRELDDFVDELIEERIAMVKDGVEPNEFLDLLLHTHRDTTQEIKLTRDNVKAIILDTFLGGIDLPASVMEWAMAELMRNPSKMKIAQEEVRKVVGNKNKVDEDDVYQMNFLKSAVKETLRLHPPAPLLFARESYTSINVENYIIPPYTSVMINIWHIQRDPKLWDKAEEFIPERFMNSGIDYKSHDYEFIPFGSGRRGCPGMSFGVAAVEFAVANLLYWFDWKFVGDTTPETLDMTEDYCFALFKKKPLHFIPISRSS
Kind of data set: CYP71CU1-microsome assays. Particulars: 1 mg/mL microsomes, 1 mM NADPH, 30 or 50 μM substrate, 30° C., 2 h.

Structures are written as SMILES.

Procedure for CYP71CU1: Yeast growth, induction and microsome preparation were performed according to Pompon et al. Microsomes enriched with P450 were isolated in 50 mM Tris-Cl, pH=7.4, 20% glycerol, 1 mM EDTA, flash-frozen as pellets in liquid nitrogen and kept at −80° C. for long term storage. Total protein content was estimated by measuring UV absorbance at 280 nm on a NanoDrop 1000 spectrophotometer.
CYP71CU1-microsome assays contained 1 mg/mL of CYP71CU1-microsomes, 1 mM NADPH, 30 or 50 μM of substrate and 100 mM NaCl in sodium phosphate buffer (50 mM, pH 7.4). Assays with microsomes from WAT11 harboring an empty vector or lacking NADPH served as negative controls. […] Enzyme assays with both CYP71CU1-microsomes and OMT1 contained 1 mg/mL of CYP71CU1-microsomes, 1 mM NADPH, 10 μg/mL of purified OMT1, 1 mM SAM, 30 or 50 μM of substrate and 100 mM NaCl in sodium phosphate buffer (50 mM, pH 7.4).
All substrates [(−)-matairesinol, (−)-arctigenin, (−)-pluviatolide, (−)-5′-desmethoxy-yatein, (−)-yatein, (−)-deoxypodophyllotoxin, and (−)-podophyllotoxin] were derived from a 100% DMSO stock; final concentration of DMSO in enzyme assays was kept constant at 5%. Total reaction volumes were 50 μL. Reactions were initiated by the addition of enzyme and incubated at 30° C.
After 2 h of incubation, reactions were quenched by the addition of 1 volume of acetonitrile with 0.1% TFA and clarified by centrifugation for 10 min at 17,000 g.

`COc1cc(C2OCC3C(c4ccc(O)c(OC)c4)OCC23)ccc1O` (single isomer, unassigned; (+)) [(+)-pinoresinol]: the “acceptance as substrate by OMT3” value in data set [1] is listed as “did not turn over”.

In the case of `COc1ccc(C[C@H]2C(=O)OC[C@@H]2Cc2ccc3c(c2)OCO3)cc1OC` [(−)-5′-desmethoxy-yatein], the “activity of 2-ODD on substrate, compared to (−)-yatein” value on 2-ODD was “some activity”. In addition, the “activity of CYP71BE54-enriched microsomes on substrate” value on CYP71BE54 is recorded as “No activity”.

On to `COc1cc(C[C@H]2C(=O)OC[C@@H]2Cc2ccc(OC)c(OC)c2)ccc1O` [(−)-arctigenin], for which the “acceptance as substrate by OMT3” value in data set [1] was “much lower efficiency”. The “activity of OMT1 on substrate” value with OMT1 is given as “not active”. Moreover, the “activity of CYP71CU1 on substrate” value on CYP71CU1 was “not active”.

For `COc1cc(C[C@H]2COC(=O)[C@@H]2Cc2ccc(O)c(OC)c2)ccc1O` [(−)-matairesinol], the “acceptance as substrate by OMT3” value in data set [1] is listed as “much lower efficiency”. Moreover, the “activity of OMT1 on substrate” value with OMT1 is “not active”. For the same molecule, at CYP71CU1, the “activity of CYP71CU1 on substrate” value was “not active”.

As usually defined, the kcat is the maximal rate divided by the concentration of active sites. In general, Km refers to the substrate concentration at which the rate is half of its maximum. In the case of `COc1cc(C[C@H]2C(=O)OC[C@@H]2Cc2ccc3c(c2)OCO3)ccc1O` [(−)-pluviatolide], the kcat in data set [1] ((−)-pluviatolide methylation by OMT3 purified from E. coli, 1 mM SAM, 22° C., pH 7.4) worked out at 0.72 s⁻¹. For the same molecule, the Km in data set [1] ((−)-pluviatolide methylation by OMT3 purified from E. coli, 1 mM SAM, 22° C., pH 7.4, read-out: apparent Km) is 1.4 µM. Also, in the data set with OMT1, the “activity of OMT1 on substrate” value was “not active”. Besides, the “activity of 2-ODD on substrate, compared to (−)-yatein” value at 2-ODD is on record as “negligible activity”. For the same molecule, at CYP71CU1, the “activity of CYP71CU1 on substrate” value is “not active”.

As to `COc1cc([C@@H]2c3cc4c(cc3[C@H](O)[C@H]3COC(=O)[C@H]23)OCO4)cc(OC)c1OC` [(−)-podophyllotoxin], the “activity of CYP71BE54-enriched microsomes on substrate” value at CYP71BE54 is on record as “No activity”.

With `COc1cc(C[C@H]2C(=O)OC[C@@H]2Cc2ccc3c(c2)OCO3)cc(OC)c1OC` [(−)-yatein], the “activity of CYP71BE54-enriched microsomes on substrate” value at CYP71BE54 is “No activity”.
